Results: US9546164B2 (GENENTECH, INC., priority 2013, dated 2017)
Counter-ions that a name gives are not always drawn.

Target: hNav1.7 (Homo sapiens (Human), UniProt Q15858)
Assay: Tritiated sulfonamide competitive binding to membranes from cells expressing hNav1.7 and the β1 subunit;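 also: Filter-bound radioactivity counted by liquid scintillation, nonspecific binding defined with excess unlabelled ligand, IC50 fitted to percent inhibition of specific binding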
Details: not given

hNav1.7, sequence (Q15858 other isoform, or with tags, fused parts or gaps): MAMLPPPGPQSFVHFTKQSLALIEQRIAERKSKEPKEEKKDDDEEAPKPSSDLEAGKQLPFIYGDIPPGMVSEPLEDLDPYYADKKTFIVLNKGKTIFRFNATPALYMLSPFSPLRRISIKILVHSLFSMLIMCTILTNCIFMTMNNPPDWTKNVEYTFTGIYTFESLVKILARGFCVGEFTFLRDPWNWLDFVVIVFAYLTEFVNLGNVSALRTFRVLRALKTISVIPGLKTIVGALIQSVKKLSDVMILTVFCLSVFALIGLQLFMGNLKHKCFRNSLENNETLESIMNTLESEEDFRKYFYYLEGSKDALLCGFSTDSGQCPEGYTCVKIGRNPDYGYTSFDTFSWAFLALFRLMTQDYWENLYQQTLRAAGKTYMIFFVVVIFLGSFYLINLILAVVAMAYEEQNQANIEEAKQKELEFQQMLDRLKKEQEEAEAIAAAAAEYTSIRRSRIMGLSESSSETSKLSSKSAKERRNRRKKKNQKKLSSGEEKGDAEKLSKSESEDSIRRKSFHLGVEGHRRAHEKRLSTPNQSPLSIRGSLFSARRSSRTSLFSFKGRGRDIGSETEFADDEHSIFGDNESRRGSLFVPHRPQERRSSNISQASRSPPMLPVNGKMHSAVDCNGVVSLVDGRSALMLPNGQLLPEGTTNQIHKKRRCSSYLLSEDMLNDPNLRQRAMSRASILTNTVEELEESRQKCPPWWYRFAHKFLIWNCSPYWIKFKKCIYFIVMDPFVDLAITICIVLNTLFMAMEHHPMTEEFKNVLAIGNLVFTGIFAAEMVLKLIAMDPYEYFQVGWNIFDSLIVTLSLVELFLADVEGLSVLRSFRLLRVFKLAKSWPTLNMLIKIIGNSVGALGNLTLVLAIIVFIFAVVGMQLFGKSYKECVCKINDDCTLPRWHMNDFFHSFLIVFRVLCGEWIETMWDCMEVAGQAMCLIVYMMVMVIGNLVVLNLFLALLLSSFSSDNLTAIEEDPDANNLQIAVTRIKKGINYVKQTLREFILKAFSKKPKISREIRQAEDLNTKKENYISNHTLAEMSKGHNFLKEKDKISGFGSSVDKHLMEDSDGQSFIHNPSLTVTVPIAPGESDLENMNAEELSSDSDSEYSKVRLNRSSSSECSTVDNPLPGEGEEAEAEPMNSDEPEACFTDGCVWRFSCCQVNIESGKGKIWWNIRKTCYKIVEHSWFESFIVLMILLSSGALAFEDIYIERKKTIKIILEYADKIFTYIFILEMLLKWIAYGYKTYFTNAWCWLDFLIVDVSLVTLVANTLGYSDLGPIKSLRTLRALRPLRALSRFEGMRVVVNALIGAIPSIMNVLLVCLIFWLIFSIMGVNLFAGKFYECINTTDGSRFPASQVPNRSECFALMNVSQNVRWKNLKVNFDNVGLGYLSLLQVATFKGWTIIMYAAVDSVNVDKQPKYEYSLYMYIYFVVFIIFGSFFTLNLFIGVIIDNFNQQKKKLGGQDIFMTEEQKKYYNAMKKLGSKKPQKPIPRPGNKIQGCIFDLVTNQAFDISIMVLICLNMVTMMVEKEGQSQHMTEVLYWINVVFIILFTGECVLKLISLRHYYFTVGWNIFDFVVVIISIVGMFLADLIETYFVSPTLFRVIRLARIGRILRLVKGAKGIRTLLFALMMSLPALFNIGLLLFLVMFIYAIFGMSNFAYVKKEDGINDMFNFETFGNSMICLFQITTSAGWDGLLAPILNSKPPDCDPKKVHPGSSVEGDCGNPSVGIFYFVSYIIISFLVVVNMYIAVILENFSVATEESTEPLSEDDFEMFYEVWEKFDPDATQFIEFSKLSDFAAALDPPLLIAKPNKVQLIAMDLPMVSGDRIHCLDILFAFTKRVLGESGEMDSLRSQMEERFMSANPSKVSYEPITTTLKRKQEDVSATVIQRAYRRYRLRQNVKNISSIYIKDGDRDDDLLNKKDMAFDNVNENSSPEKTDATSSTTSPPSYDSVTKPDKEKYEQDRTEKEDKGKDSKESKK
hNav1.7, sequence (Q07699 19-218 partner): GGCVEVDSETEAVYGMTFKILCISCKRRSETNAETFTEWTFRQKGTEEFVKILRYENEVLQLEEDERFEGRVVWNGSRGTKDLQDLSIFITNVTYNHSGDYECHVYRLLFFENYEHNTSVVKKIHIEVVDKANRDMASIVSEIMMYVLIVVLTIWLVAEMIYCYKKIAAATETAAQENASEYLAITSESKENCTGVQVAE

SMILES	IC50 [nM]
O=C(NS(=O)(=O)C1CC1)c1cc(Cl)c(O[C@@H]2CCCN(Cc3ccc(F)cc3Cl)C2)cc1F.O=C(O)C(Cl)(Cl)Cl [Example 39, (R)-5-chloro-4-((1-(2-chloro-4-fluorobenzyl)piperidin-3-yl)oxy)-N-(cyclopropylsulfonyl)-2-fluorobenzamide, trichloroacetic acid salt]	6.8
C[C@@H]1CN(Cc2cc(F)c(C(=O)NS(=O)(=O)C3CC3)cc2C2CC2)CCN1[C@@H](C)c1cc(Cl)cc(Cl)c1 [Example 572, 5-cyclopropyl-N-(cyclopropylsulfonyl)-4-(((R)-4-((S)-1-(3,5-dichlorophenyl)ethyl)-3-methylpiperazin-1-yl)methyl)-2-fluorobenzamide]	21.6

Same assay, conditions: read-out: Ligand Binding Assay; 100 pM [3H]compound, membranes with hNav1.7 and β1 subunit, 18 h, room temperature

SMILES	IC50 [nM]
CS(=O)(=O)NC(=O)c1cc(C2CC2)c(OCC2CN(Cc3ccccc3)C2)cc1F [Example 74, -((1-benzylazetidin-3-yl)methoxy)-5-cyclopropyl-2-fluoro-N-(methylsulfonyl)benzamide]	3600
COC[C@H](c1cc(Cl)cc(Cl)c1)N1CCC[C@@H](Oc2cc(F)c(C(=O)NS(C)(=O)=O)cc2C2CC2)C1 [Example 448, 5-cyclopropyl-4-(((R)-1-((S)-1-(3,5-dichlorophenyl)-2-methoxyethyl)piperidin-3-yl)oxy)-2-4-N-(methylsulfonyl)benzamide, trifluoroacetic acid salt]	10.5
CS(=O)(=O)NC(=O)c1cc(C2CC2)c(O[C@@H]2CCCN(Cc3cccc(OC(F)(F)F)c3)C2)cc1F [Example 437, (R)-5-cyclopropyl-2-fluoro-N-(methylsulfonyl)-4-((1-(3-(trifluoromethoxy)benzyl)piperidin-3-yl)oxy)benzamide, trifluoroacetic acid salt]	7.3
CS(=O)(=O)NC(=O)c1cc(C2CC2)c(OCC2CCN([C@@H](c3cc(Cl)cc(Cl)c3)C(F)F)CC2)cc1F (single isomer, unassigned) [Example 224]	4.5
CS(=O)(=O)NC(=O)c1cc(C2CC2)c(O[C@@H]2CCCN(Cc3cc(Cl)cc(OC(F)(F)F)c3)C2)cc1F [Example 422, (R)-4-((1-(3-chloro-5-(trifluoromethoxy)benzyl)piperidin-3-yl)oxy)-5-cyclopropyl-2-fluoro-N-(methylsulfonyl)benzamide, trifluoroacetic acid salt]	1.3
CC1(COc2cc(F)c(C(=O)NS(=O)(=O)C3CC3)cc2C2CC2)CN(C(c2ccccc2)c2cc(Cl)cc(Cl)c2)C1 (stereo not shown) [Example 421, 5-cyclopropyl-N-(cyclopropylsulfonyl)-4-((1-((3,5-dichlorophenyl)(phenyl)methyl)-3-methylazetidin-3-yl)methoxy)-2-fluorobenzamide, trifluoroacetic acid salt]	2.5
COc1cccc(CN2CCC(C)(COc3cc(F)c(C(=O)NS(C)(=O)=O)cc3C3CC3)CC2)n1 [Example 576]	270
CS(=O)(=O)NC(=O)c1cc(C2CC2)c(OCC2CCN(Cc3ccc(F)cc3C(F)(F)F)CC2)cc1F [Example 586, 5-cyclopropyl-2-fluoro-4-((1-(4-fluoro-2-(trifluoromethyl)benzyl)piperidin-4-yl)methoxy)-N-(methylsulfonyl)benzamide]	5.2
CC(C)Oc1ncc([C@@H](c2ccccc2)N2CC(COc3cc(F)c(C(=O)NS(C)(=O)=O)cc3C3CC3)C2)cc1Cl [Example 115, (R)-4-((1-((5-Chloro-6-isopropoxypyridin-3-yl)(phenyl)methyl)azetidin-3-yl)methoxy)-5-cyclopropyl-2-fluoro-N-(methylsulfonyl)benzamide]	4.2
COc1ccc(CN2CCC[C@@H](Oc3cc(F)c(C(=O)NS(=O)(=O)C4CC4)cc3C3CC3)C2)cc1F [Example 313, (R)-5-cyclopropyl-N-(cyclopropylsulfonyl)-2-fluoro-4-((1-(3-fluoro-4-methoxybenzyl)piperidin-3-yl)oxy)benzamide]	9.1
O=C(NS(=O)(=O)N1CC(F)C1)c1cc(C2CC2)c(OC2CC3(C2)CN(Cc2ccc(F)cc2Cl)C3)cc1F [Example 321, 4-((2-(2-chloro-4-fluorobenzyl)-2-azaspiro[3.3]heptan-6-yl)oxy)-5-cyclopropyl-2-fluoro-N-((3-fluoroazetidin-1-yl)sulfonyl)benzamide]	191
CS(=O)(=O)NC(=O)c1cc(C2CC2)c(OCC2CN([C@@H](c3ccccc3)c3ccccc3F)C2)cc1F [Example 124, (S)-5-Cyclopropyl-2-fluoro-4-((1-((2-fluorophenyl)(phenyl)methyl)azetidin-3-yl)methoxy)-N-(methylsulfonyl)benzamide]	71.3
C[C@H]1[C@@H](Oc2cc(F)c(C(=O)NS(C)(=O)=O)cc2C2CC2)CCCN1Cc1cc(Cl)cc(Cl)c1 [Example 330, 5-cyclopropyl-4-(((2S,3S)-1-(3,5-dichlorobenzyl)-2-methylpiperidin-3-yl)oxy)-2-fluoro-N-(methylsulfonyl)benzamide, trifluoroacetic acid salt]	31.9
CS(=O)(=O)NC(=O)c1cc(C2CC2)c(OCC2CCN(C(c3cccc(Cl)c3)c3cccc(Cl)c3)CC2)cc1F [Example 352, 4-((1-(bis(3-chlorophenyl)methyl)piperidin-4-yl)methoxy)-5-cyclopropyl-2-fluoro-N-(methylsulfonyl)benzamide, trifluoroacetic acid salt]	2
CC1(Oc2cc(C(F)(F)F)c(Cl)cn2)CCN(Cc2cc(F)c(C(=O)NS(=O)(=O)C3CC3)cc2C2CC2)CC1 [Example 472, 4-((4-((5-chloro-4-(trifluoromethyl)pyridin-2-yl)oxy)-4-methylpiperidin-1-yl)methyl)-5-cyclopropyl-N-(cyclopropylsulfonyl)-2-fluorobenzamide, trifluoroacetic acid salt]	3.6
CC(c1cc(Cl)cc(Cl)c1)N1CCC(COc2cc(F)c(C(=O)NS(=O)(=O)C3CC3)cc2C2CC2)CC1 (stereo not shown) [Example 102, 5-Cyclopropyl-N-(cyclopropylsulfonyl)-4-((1-(1-(3,5-dichlorophenyl)-ethyl)piperidin-4-yl)methoxy)-2-fluorobenzamide]	2.54
O=C(NS(=O)(=O)C1CC1)c1cc(C2CC2)c(OC[C@@H]2C[C@H]3CC[C@@H](C2)N3Cc2cc(C(F)(F)F)cc(Cl)c2F)cc1F [Example 396, 4-(((1R,3S,5S)-8-(3-chloro-2-fluoro-5-(trifluoromethyl)benzyl)-8-azabicyclo-[3.2.1]octan-3-yl)methoxy)-5-cyclopropyl-N-(cyclopropylsulfonyl)-2-fluorobenzamide, trifluoroacetic acid salt]	14.8
CS(=O)(=O)NC(=O)c1cc(C2CC2)c(OCC2CCN(S(=O)(=O)c3ccc(C(F)(F)F)cc3Cl)CC2)cc1F [Example 384, 4-((1-((2-chloro-4-(trifluoromethyl)phenyl)sulfonyl)piperidin-4-yl)methoxy)-5-cyclopropyl-2-fluoro-N-(methylsulfonyl)benzamide]	16.3
CS(=O)(=O)NC(=O)c1cc(C2CC2)c(OCC2CCN(CC(F)(F)C(F)F)CC2)cc1F [Example 192, 5-Cyclopropyl-2-fluoro-N-(methylsulfonyl)-4-((1-(2,2,3,3-tetrafluoropropyl)piperidin-4-yl)methoxy)benzamide]	34
CC1(COc2cc(F)c(C(=O)NS(C)(=O)=O)cc2C2CC2)CCN(Cc2ccc(Cl)c(Cl)c2)CC1 [Example 575, 5-cyclopropyl-4-((1-(3,4-dichlorobenzyl)-4-methylpiperidin-4-yl)methoxy)-2-fluoro-N-(methylsulfonyl)benzamide]	4.5
